These results are taken from ChEMBL document CHEMBL1201862, “PubChem BioAssay data set” (2004).

Assay [1] can be described thus: luciferase reporter signal suppression in cells – H4 neuroglioma cells, luminescence, dose response (AID 1990). It counts as functional, cell-based.
Assay [2] can be described thus: Luminescence Cell-Based Dose Response HTS to Identify Inhibitors of 5'UTR Stem-Loop Driven Prion Protein mRNA Translation in H4 Neuroglioblastoma Cells. [Related pubchem assays: 1827 (Project Summary), 1813 (Primary HTS)]. The format is functional.
The target of assay [3] is T1, Heat shock factor protein 1 (Mus musculus, UniProt P38532).
T1 sequence (P38532 whole entry): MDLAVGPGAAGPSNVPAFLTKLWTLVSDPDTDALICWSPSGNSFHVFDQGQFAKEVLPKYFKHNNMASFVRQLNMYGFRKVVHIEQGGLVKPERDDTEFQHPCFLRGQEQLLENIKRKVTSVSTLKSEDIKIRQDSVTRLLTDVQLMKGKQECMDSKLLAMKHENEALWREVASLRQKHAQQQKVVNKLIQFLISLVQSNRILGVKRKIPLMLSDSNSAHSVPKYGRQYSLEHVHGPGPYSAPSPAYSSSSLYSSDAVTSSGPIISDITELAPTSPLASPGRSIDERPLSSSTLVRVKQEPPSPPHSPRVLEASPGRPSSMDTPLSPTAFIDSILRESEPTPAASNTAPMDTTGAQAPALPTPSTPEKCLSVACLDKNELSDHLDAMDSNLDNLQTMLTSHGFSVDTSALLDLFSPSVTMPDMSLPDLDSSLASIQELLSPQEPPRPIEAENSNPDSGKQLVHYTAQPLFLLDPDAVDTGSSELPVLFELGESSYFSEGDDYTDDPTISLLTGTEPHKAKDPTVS
Description: decrease of HSF1-responsive luciferase luminescence – cell-based, NIH3T3, dose retest, confirmation (AID 2382).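 Also: NIH3T3 fibroblasts with HSF1-driven luciferase reporter stressed by proteasome inhibitor MG132; luminescence from HSF1-driven luciferase expression after 8 hours of MG132 stress.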 It counts as functional.

The nature of assay [4]: alpha-synuclein stem-loop luciferase translation blockers – H4 neuroglioma cells, luminescence, confirmation (AID 1988). The format is functional, cell-based.
Assay [5] addresses Heat shock protein HSP 90-alpha (Homo sapiens, UniProt P07900). The assay is described as follows: Luminescence-based dose response biochemical high throughput screening assay for inhibitors of the Heat Shock Protein 90 (HSP90). [Related pubchem assays: 1831 (Summary AID.), 1846 (Confirmation screen.), 1789 (Primary screen.)].
Assay [6] concerns the target Luciferin 4-monooxygenase (Photuris pensylvanica, UniProt Q27757). Description: inhibition of Cell Titer Glo luciferase signal – biochemical, luminescence, cherry-picks, counter-screen for HSF-1 reporter inhibitor project, dose response (AID 588847).
Assay [7] is described as follows: reduction of Shn3 3'UTR-driven luciferase in osteoblasts – cell-based, Clone20 osteoblasts, firefly luciferase, cherry-picked, dose response (AID 624132).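 Also: firefly luciferase luminescence from reporter carrying the Shn3 3'UTR in osteoblasts.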 It counts as functional.
A short description of assay [8]: loss of viability in HepG2 cells – cell-based, CellTiter-Glo, cherry-picked, cytotoxicity control for Shn3 inhibitor project, dose response (AID 624134). The format is functional. For orientation: In ATP-based viability assays light output follows the ATP content of the culture.
The nature of assay [9]: non-specific 3'UTR reporter inhibition in Clone20-Shn3RL – cell-based, Renilla luciferase, cherry-picked, counter-screen for Shn3 inhibitor project, dose response (AID 624133). The format is functional. (A counterscreen serves to expose hits that act by an unwanted route or on another target.)
Assay [10] can be described thus: blockers of HIV-1 envelope-mediated cell-cell fusion – cherry-pick, dose response (AID 652057). It counts as functional, cell-based.
The nature of assay [11]: viability loss in CEM21 cells – cell-based, CellTiter-Glo luminescence, cherry-picked, cytotoxicity control for viral fusion inhibitor project, dose response (AID 652042).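 Also: potency for signal decrease meaning cytotoxicity.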 It counts as functional.
Assay [12] is described as follows: blockers of HIV-1 ZM109 envelope-driven cell-cell fusion – HeLa effector, CEM target cells, luciferase, cherry-pick, dose response (AID 652058).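 Also: luciferase signal from HIV-1 Env mediated cell-cell fusion of effector and target cells.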 It counts as functional, cell-based.
Assay [13] has as its target Paired box protein Pax-8 (Homo sapiens, UniProt Q06710). Description: PAX8 transcriptional activity inhibition in RMG-I – RMG-I cells, luciferase, cherry-pick, dose response (AID 687027).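 Also: luciferase reporter driven by Pax8 target thyroperoxidase promoter measured by SteadyGlo luminescence.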 It counts as functional, cell-based.
Assay [14] can be described thus: off-target signal loss in HeLa-CEM21 co-culture – HeLa F-luc CTL cells, cherry-picked, counter-screen for HIV-1 Env fusion inhibitor project, dose response (AID 652040).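 Also: potency for signal decrease marking cytotoxic or nonspecific inhibition.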 The format is functional, cell-based.
Assay [15] can be described thus: HIV-1 AD8 envelope cell-cell fusion blockers – cherry-pick, dose response (AID 652062).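 Also: luciferase signal from cell-cell fusion driven by HIV-1 clade B AD8 Env; potency is for inhibitors of fusion seen as a drop in luminescence.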 The format is functional, cell-based.
Assay [16] can be described thus: general cell-killing toxicity readout – plate reader, dry powder samples, cytotoxicity control for PAX8 inhibitor project, dose response (AID 743021). It counts as functional, cell-based.
Assay [17] has as its target T2, Microphthalmia-associated transcription factor (Homo sapiens, UniProt O75030).
T2 sequence (O75030 whole entry): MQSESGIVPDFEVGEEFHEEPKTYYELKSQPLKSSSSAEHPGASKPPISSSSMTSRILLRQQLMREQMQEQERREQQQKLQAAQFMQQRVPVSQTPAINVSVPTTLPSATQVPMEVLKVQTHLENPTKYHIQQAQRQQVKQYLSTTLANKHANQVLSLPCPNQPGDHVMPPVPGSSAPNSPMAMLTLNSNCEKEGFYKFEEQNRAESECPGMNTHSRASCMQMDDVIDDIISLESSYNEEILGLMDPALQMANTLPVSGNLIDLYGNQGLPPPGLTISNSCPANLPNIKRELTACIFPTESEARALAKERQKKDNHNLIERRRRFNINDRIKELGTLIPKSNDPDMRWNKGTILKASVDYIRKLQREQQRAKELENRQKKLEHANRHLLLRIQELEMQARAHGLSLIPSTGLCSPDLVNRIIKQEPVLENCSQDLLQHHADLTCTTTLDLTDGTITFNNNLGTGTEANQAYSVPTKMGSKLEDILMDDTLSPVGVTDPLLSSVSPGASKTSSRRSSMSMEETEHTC
The assay is described as follows: reducers of TRPM1 reporter luminescence, concentration series – cell-based, SK-MEL-5, cherry-picked, set 3, MITF inhibitor project, dose response (AID 493073).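 Also: SK-MEL-5 melanoma cells with luciferase driven by the MITF target TRPM1 promoter.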 It counts as functional.

For assay [18], the system named is A-375. Description: MITF: Counter assay: A375 proliferation Measured in Cell-Based System Using Plate Reader - 2084-03_Inhibitor_Dose_DryPowder_Activity. [Related pubchem assays (depositor defined):AID488944]. It counts as functional. The note with it: Homo sapiens.
For assay [19], the system named is A-375. The assay is described as follows: proliferation inhibition in MITF-low A375 cells – cell-based, cherry-pick samples, set 2, counter-screen for MITF modulator project, dose response (AID 540335). It counts as functional. The note with it: Homo sapiens.
Assay [20] can be described thus: Fluorescence polarization-based biochemical high throughput dose response assay for activators of the Protein Kinase A-R1A (PKA-R1A) complex. [Related pubchem assays (depositor defined):AID504704, AID504707, AID504799, AID504800]. (In fluorescence polarisation assays a small probe gives low polarisation when free and higher when bound to something large.)
Assay [21] is described as follows: Fluorescence polarization-based biochemical high throughput dose response assay for activators of the Protein Kinase A-R2B (PKA-R2B) complex. [Related pubchem assays (depositor defined):AID504700, AID504704, AID504796, AID504797].

The source made the active and inactive calls.

Paired box protein Pax-8, sequence (Q06710 whole entry, the tested form may be a part): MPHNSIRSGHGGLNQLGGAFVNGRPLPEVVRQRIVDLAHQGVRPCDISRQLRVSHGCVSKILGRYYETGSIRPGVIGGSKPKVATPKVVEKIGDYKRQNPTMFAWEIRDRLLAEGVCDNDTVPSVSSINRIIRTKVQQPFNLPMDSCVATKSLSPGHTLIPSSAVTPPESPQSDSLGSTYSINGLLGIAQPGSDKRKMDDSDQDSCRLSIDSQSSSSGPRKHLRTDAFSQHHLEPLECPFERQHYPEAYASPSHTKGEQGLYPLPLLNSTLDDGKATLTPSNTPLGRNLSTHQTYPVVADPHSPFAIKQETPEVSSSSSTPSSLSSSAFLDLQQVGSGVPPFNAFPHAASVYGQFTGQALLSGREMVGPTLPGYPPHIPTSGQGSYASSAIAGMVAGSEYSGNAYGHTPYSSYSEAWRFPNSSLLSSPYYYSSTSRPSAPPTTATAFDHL
Luciferin 4-monooxygenase, sequence (Q27757 whole entry): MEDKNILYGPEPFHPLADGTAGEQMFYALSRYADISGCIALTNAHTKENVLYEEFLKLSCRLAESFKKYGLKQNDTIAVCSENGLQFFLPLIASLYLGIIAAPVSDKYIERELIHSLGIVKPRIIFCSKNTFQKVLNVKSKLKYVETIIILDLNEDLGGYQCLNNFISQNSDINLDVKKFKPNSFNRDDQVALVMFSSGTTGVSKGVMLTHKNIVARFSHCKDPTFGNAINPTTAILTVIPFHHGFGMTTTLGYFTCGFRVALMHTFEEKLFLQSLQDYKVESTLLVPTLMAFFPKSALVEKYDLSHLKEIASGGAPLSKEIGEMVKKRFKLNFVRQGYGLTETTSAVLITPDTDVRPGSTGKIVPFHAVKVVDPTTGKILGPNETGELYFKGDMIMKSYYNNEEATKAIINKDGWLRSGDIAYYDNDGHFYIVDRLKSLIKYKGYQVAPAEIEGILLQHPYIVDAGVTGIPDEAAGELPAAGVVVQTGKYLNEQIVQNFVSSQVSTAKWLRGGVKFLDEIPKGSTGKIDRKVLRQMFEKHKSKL

As a reminder, the EC50 is the concentration needed to bring the measured effect to its halfway point. Broadly, the IC50 is the concentration that inhibits the measured activity by half. The term AC50 denotes the concentration giving half of the maximal activity seen. For `CC1CCN(c2ccc(-c3cccc(NC(=O)C(F)(F)F)c3)nn2)CC1`, the EC50 is 5.09 µM (inconclusive) in assay [1], 8.19 µM (active) in [2], < 0.16 µM (active) in [3] and 0.475 µM (inconclusive) in assay [4]. For the same molecule, in assay [5], the IC50 is 8.01 µM (active). Also, the AC50 in assay [6] is 29.2 µM (active); in assay [7] it was 2.74 µM (active); in assay [8], 44.1 µM (active); in [9], 3.1 µM (active); in assay [10], 2.55 µM (active); in assay [11] it was 32.2 µM (active). Also, the AC50 in assay [12] is 36.5 µM (active); in assay [13] it was 3.37 µM (active); in assay [14], 4.11 µM (active); in assay [15], 11.5 µM (active); in [16], 32 µM (active).

As for `O=C(O)c1ccccc1C(=O)Nc1ccc(Oc2cccc3ccccc23)cc1`, the concentration giving a half-maximal response (EC50) was 6.38 µM (active) in [1], 12.7 µM (active) in assay [2] and 10.4 µM (active) in assay [4]. Besides, the concentration at half-maximal activity (AC50) in [17] is 18.8 µM (active); in [18], > 35 µM (active); in [19], > 35 µM (active).

On to `CCCC(=O)Nc1ncnc2c1ncn2[C@@H]1O[C@@H]2OP(=O)(O)OC[C@H]2[C@H]1OC(=O)CCC`, for which the EC50 in [20] is 6.7 µM (active); in [21], 9.1 µM (active).
